# Assay: In vivo study in rats fed a high-fat diet for 3 weeks (Example 2): body weight, blood glucose, liver weight, hepatic enzymes
# Set-up: species or system Sprague-Dawley rats
# Description: Sprague-Dawley rats (8-week-old; OzGene, formerly Animal Resources Centre, Perth) were fed a high-fat diet (22% fat/44% energy from fat, sourced from Specialty Feeds, Glen Forrest WA) where animals were provided access to food ad libitum for a period of 3 weeks. The rats were divided into groups and administered treatments as follows: (i) PBS (negative control), (ii) INU-BEN (1 g/kg), (iii) orlistat (tetrahydrolipstatin) (positive control; 75 mg/kg; Dayang Chem (Hangzhou) Co., Ltd) and (iv) a combination group of INU-BEN (1 g/kg) and orlistat (75 mg/kg). The rats were treated daily between […]. The experimental studies involved monitoring body weight daily, prior to dosing. Thereafter, blood samples were collected (by tail vein) prior to the rats being euthanized and were analysed for blood glucose levels and liver enzyme concentrations. The rats were dissected and analysed for fat pad weight and liver weight. The rat microbiomes were also analysed at the completion of the 3-week treatment period via faecal samples.
smiles,measurement,setting,value
"CCCCCCCCCCC[C@@H](C[C@@H]1OC(=O)[C@H]1CCCCCC)OC(=O)[C@H](CC(C)C)NC=O [orlistat, tetrahydrolipstatin]","plasma hepatic enzyme concentrations (LDH, ALT, AST)","after 3 weeks of treatment, FIGS. 7A-7C",does not exert a positive impact on plasma hepatic enzyme concentrations
same,body weight gain (change in rodent body weight normalized to original body weight),"daily treatment for 3 weeks, INU-BEN 1 g/kg, orlistat 75 mg/kg, vs PBS negative control, FIG. 3/4",performed about the same
